Patent publication US6451807B1, “Methods of treating sexual dysfunction in an individual suffering from a retinal disease, class 1 congestive heart failure, or myocardial infarction using a PDE5 inhibitor” (Lilly Icos, LLC., priority 1999, dated 2002)

What was measured:
[1] = molecular target: T1, PDE1c (Homo sapiens, UniProt Q14123); test: PDE1c enzyme inhibition, IC50 determination; assay type: biochemical; conditions: read-out: IC50 against PDE1c
T1 construct: made in house; host or cells: Spodoptera frugiperda Sf9 cells
Method: Cell pellets (5g) were thawed on ice with 20 ml of Lysis Buffer (50 mM MOPS pH 7.4, 10 μM ZnSO4, 0.1 mM CaCl2, 1 mM DTT, 2 mM benzamidine HCl, 5μg/ml each of pepstatin, leupeptin, and aprotenin). Cells were lysed by passage through a French pressure cell (SLM-Aminco) while temperatures were maintained below 10° C. The resultant cell homogenate was centrifuged at 36,000 rpm at 4° C. for 45 minutes in a Beckman ultracentrifuge using a Type TI45 rotor. The supernatant was discarded and the resultant pellet was resuspended with 40 ml of Solubilization Buffer (Lysis Buffer containing 1M NaCl, 0.1M MgCl2, 1 mM CaCl2, 20 μg/ml calmodulin, and 1% Sulfobetaine SB12 (Z3-12) by sonicating using a VibraCell tuner with a microtip for 3×30 seconds. This was performed in a crushed ice/salt mix for cooling. Following sonication, the mixture was slowly mixed for 30 minutes at 4° C. to finish solubilizing membrane bound proteins. This mixture was centrifuged in a Beckman ultracentrifuge using a type TI45 rotor at 36,000 rpm for 45 minutes. The supernatant was diluted with Lysis Buffer containing 10 μg/ml calpain inhibitor I and II. The precipitated protein was centrifuged for 20 minutes at 9,000 rpm in a Beckman JA-10 rotor. The recovered supernatant then was subjected to Mimetic Blue AP Agarose Chromatography. […]

[2] = system: men with mild to severe erectile dysfunction; test: Randomized, double-blind, placebo-controlled on demand study in male erectile dysfunction (Example 7); assay type: in vivo, human; conditions: for patients who rated their ability to maintain an erection (IIEF Question 4) during intercourse as almost always or always / patients who rated their penetration ability (IIEF Question 3) as almost always or always: at endpoint
Method: A third clinical study was a randomized, double-blind, placebo-controlled study using a compound of structural formula (I) (Study Drug) administered “on demand” to patients with male erectile dysfunction. The Study Drug was administered over a period of eight weeks in the treatment of male erectile dysfunction (ED). Erectile dysfunction (ED) is defined as the persistent inability to attain and/or maintain an erection adequate to permit satisfactory sexual performance. “On demand” dosing is defined as intermittent administration of Study Drug prior to expected sexual activity. The study population consisted of 212 men, at least 18 years of age, with mild to severe erectile dysfunction. The Study Drug was orally administered as tablets of coprecipitate made in accordance with Butler U.S. Pat. No. 5,985,326. […] Treatment with all nitrates, azole antifungals (e.g., ketoconazole or itraconazole), warfarin, erythromycin, or antiandrogens was not allowed at any time during the study. No other approved or experimental medications, treatments, or devices used to treat ED were allowed. Forty-one subjects were administered a placebo. The two primary efficacy variables were the ability of a subject to penetrate their partner and their ability to maintain an erection during intercourse, as measured by the International Index of Erectile Function (IIEF). The IIEF Questionnaire contains fifteen questions, and is a brief, reliable measure of erectile function. See R. C. Rosen et al., Urology, 49, pp. 822-830 (1997). Secondary efficacy variables were IIEF domain scores for erectile function, orgasmic function, sexual desire, intercourse satisfaction, and overall satisfaction; the patient's ability to achieve an erection, ability to insert their penis into their partner's vagina, completion of intercourse with ejaculation, satisfaction with the hardness of their erection, and overall satisfaction, all as measured by the Sexual Encounter Profile (SEP) diary; and a global assessment question asked at the end of the treatment period. The SEP is a patient diary instrument documenting each sexual encounter during the course of the study. The safety analysis of the study included all enrolled subjects, and was assessed by evaluating all reported adverse events, and changes in clinical laboratory values, vital signs, physical examination results, and electrocardiogram results.

[3] = system: male erectile dysfunction; test: Combined clinical studies, IIEF erectile function domain; assay type: in vivo, human
[4] = 2 to 25 mg on demand, eight weeks

T1 sequence (Q14123 whole entry, species assumed): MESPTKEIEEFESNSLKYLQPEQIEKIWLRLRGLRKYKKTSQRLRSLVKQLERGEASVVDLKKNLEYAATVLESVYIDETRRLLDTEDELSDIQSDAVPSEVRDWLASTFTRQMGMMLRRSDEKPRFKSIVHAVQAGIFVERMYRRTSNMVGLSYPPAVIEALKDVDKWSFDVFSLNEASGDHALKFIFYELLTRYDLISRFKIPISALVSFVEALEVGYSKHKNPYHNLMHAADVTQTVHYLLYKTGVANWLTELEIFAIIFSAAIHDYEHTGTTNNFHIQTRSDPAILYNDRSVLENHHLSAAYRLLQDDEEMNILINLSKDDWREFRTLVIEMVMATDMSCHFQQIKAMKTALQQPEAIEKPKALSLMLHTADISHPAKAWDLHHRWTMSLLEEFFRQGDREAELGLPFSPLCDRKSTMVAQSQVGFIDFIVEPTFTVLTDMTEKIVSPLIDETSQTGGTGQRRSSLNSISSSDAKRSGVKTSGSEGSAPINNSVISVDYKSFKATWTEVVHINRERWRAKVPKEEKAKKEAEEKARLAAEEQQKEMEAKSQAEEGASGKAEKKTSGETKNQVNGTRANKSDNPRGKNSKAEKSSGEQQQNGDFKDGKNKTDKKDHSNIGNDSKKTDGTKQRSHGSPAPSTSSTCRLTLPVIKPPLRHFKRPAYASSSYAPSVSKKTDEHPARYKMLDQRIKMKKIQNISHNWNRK

CN1CC(=O)N2[C@H](c3ccc4c(c3)OCO4)c3[nH]c4ccccc4c3C[C@@H]2C1=O [Compound 5, (6R-trans)-6-(1,3-benzodioxol-5-yl)-2,3,6,7,12,12a-hexahydro-2-methylpyrazino[1′,2′:1,6]pyrido[3,4-b]indole-1,4-dione]
IC50 [1]: 10 µM | patients who rated their ability to maintain an erection (IIEF Question 4) during intercourse as almost always or always ([2]; 2 mg group): 19.5% | patients who rated their penetration ability (IIEF Question 3) as almost always or always ([2]; 2 mg group): 38.1% | sexual performance of men with erectile dysfunction (IIEF, patient diaries, global assessment) ([2]; 2 mg, 5 mg, 10 mg and 25 mg taken on demand): significant improvement, relative to placebo | patients who rated their ability to maintain an erection (IIEF Question 4) during intercourse as almost always or always ([2]; 5 mg group): 32.6% | patients who rated their penetration ability (IIEF Question 3) as almost always or always ([2]; 5 mg group): 48.8% | patients who rated their ability to maintain an erection (IIEF Question 4) during intercourse as almost always or always ([2]; 10 mg group): 39.0% | patients who rated their penetration ability (IIEF Question 3) as almost always or always ([2]; 10 mg group): 51.2% | patients who rated their ability to maintain an erection (IIEF Question 4) during intercourse as almost always or always ([2]; 25 mg group): 69.0% | patients who rated their penetration ability (IIEF Question 3) as almost always or always ([2]; 25 mg group): 83.7% | adverse events related to color vision disturbances [2, 4]: no adverse events related to color vision disturbances were reported | severity of adverse events [2, 4]: mild or moderate in severity | change in penetration ability versus placebo (IIEF Question 3) ([2]; all dose levels (2, 5, 10, 25 mg)): statistically significant differences | change in penetration ability versus placebo (comparison reported for IIEF Question 4) ([2]; the three higher dose levels): statistically significant differences | treatment of male erectile dysfunction ([3]; combined results from clinical studies): effectively treats male erectile dysfunction | IIEF erectile function domain (change from baseline), Mean ± SD ([3]; unit dose 2 mg): 3.9 ± 6.1 | IIEF erectile function domain (change from baseline), Mean ± SD ([3]; unit dose 5 mg): 6.6 ± 7.1 | IIEF erectile function domain (change from baseline), Mean ± SD ([3]; unit dose 10 mg): 7.9 ± 6.7 | IIEF erectile function domain (change from baseline), Mean ± SD ([3]; unit dose 25 mg): 9.4 ± 7.0 | IIEF erectile function domain (change from baseline), Mean ± SD ([3]; unit dose 50 mg): 9.8 ± 5.5 | IIEF erectile function domain (change from baseline), Mean ± SD ([3]; unit dose 100 mg): 8.4 ± 6.1
